Laboratory results published in patent US11884747B2, “Compstatin analogs with increased solubility and improved pharmacokinetic properties” (The Trustees of the University of Pennsylvania, priority 2018, dated 2024).
Several values for one entry are separate records, joined by “and”; a condition that tells them apart may be missing. Equal values may be shown once. Entries after “also recorded” stand apart in the source; their conditions may differ.

Experiments:
[1] = system: classical pathway of complement; assay: Classical pathway complement inhibition ELISA (C3b deposition) in normal human plasma; format: biochemical; conditions: human plasma diluted 1:40; mean of at least three experiments
Method: For this purpose, microtiter wells (NUNC) were coated with 50 μl of 1% ovalbumin in PBS (pH 7.4) at ambient temperature for 2 h. The wells were blocked with 200 μl of 1% BSA in PBS for 1 h, then coated with 50 μl of 1:1000 α-ovalbumin polyclonal antibody in PBS for 1 h. Between each step, the plate was washed thrice with 200 μl of 0.05% Tween 20 in PBS (PBS-T); 30 μl of VBS (Veronal buffer 1×; 5 mM veronal, pH 7.4, containing 150 mM NaCl, 0.5 mM CaCl2 and 0.5 mM MgCl2) were placed in all but the first well of each row of the 96-well plate, and 5 μM peptide solutions in VBS were prepared. […] Human plasma diluted 1:40 in VBS was incubated for 15 min with peptide of 0.005 to 2.5 μM. After washing with PBS-T, 50 μl/well of 1:1000 goat a-human C3 HRP conjugated antibody in 1% BSA in PBS was added to the wells and incubated for 1 h at room temperature. Complement fixation indicating activation was detected by the addition of HRP substrate (0.05% ABTS and 0.1% of 30% aqueous H2O2 in 0.1 M sodium citrate, pH 4.2) and read at 405 nm. The absorbance data obtained at 405 nm were translated into % inhibition, considering 100% to be equal to complement activation in the absence of peptide. The percent inhibition was plotted against the logarithm of concentrations, and the resulting data set was fitted to the equation “log(inhibitor) vs. normalized response” using GraphPad Prism 5 (La Jolla, CA). IC50 values were obtained from the fitted parameters of the mean of at least three independent experiments. Cp40 was always used as the internal control.

[2] = system: complement classical pathway; assay: Classical pathway activation (C3b deposition) ELISA in human plasma with or without rabbit vitreous; format: biochemical; conditions: in the absence of vitreous
Method: An alternative explanation to the one presented above is that the vitreous contains additional unidentified factors that associate with the Cp40-KKK analog. To investigate whether an unidentified vitreous factor impacts the complement inhibitory activity of lysine containing compounds, complement activation assays were performed using vitreous samples. Briefly, human plasma was incubated with OVA-anti-OVA immune-complexes in the presence of serial dilutions of the Cp40-based analogs mixed with rabbit vitreous. Levels of classical pathway activation (C3b deposition) were determined by ELISA using a polyclonal anti-human C3 antibody conjugated with HRP (MP Biomedicals, Solon, OH) (FIG. 20).

[3] = Pharmacokinetics in NHP plasma after single s.c. injection, with plasma C3 levels
[4] = for pH of the peptide solution in PBS: at the stated concentration, indicator paper
human C3b = biological target: T1, human C3b (Homo sapiens, UniProt P01024); assay: SPR binding affinity and kinetic profile with immobilized C3b; conditions: for kd, dissociation constant / Kd / ka, association constant: 25 °C; for kd, dissociation constant / ka, association constant: 1:1 Langmuir model; for Kd: KD=kd/ka, read-out: KD, equilibrium dissociation constant
T1 construct: purchased Complement Technology, Inc., Tyler, TX

[5] = Residence time in the vitreous after single intravitreal injection (WES and SPR competition assay); format: in vivo, cynomolgus monkeys; conditions: single i.v.t. 500 μg; days 14-90
Method: To determine the residence time of mPEG(3 k)-Cp40, mPEG(1 k)-Cp40, Cp40-KK, and Cp40-KKK in the vitreous of cynomolgus macaques, these Cp40-based analogs were administered intravitreally (i.v.t.) to the animals after induction of light ketamine anesthesia (10-15 mg/kg, by intramuscular injection (i.m.)) and dilation of the pupils with tropicamide/phenylephrine ophthalmic solution (see Table 6 for study design).
For i.v.t. injection, the cynomolgus monkeys were anesthetized with a combination of ketamine (15-25 mg/kg, i.m.) and xylazine (2 mg/kg, i.m.) and the eye was cleaned with povidone-iodine solution. After application of oxybuprocaine hydrochloride solution (Benoxil® ophthalmic solution 0.4%) to the cornea as a local anesthetic, the Cp40-based analogs were administered to the animals by i.v.t. injection into either the right (G1, G3) or left (G2, G4) eye of each animal. Immediately following each injection, a single topical dose of 0.5% levofloxacin was administered. After i.v.t. injection of mPEG(3 k)-Cp40, mPEG(1 k)-Cp40, Cp40-KK, and Cp40-KKK, vitreous fluid samples (about 50 μL each) were withdrawn from Cp40-based analog-treated eyes on days 14, 28, 42, (G1, G2, G3, G4), 56, 73, 90 (G1, G2) (this was done either three times or six times). Samples were collected on ice and stored in a deep freezer (˜79.3 to −68.5° C.) until further analysis. […] Presence and concentration of the Cp40-based analogs was determined using either the simple western technology (WES, ProteinSimple, San Jose, CA), or surface plasmon resonance (SPR)-based real-time measurement of binding kinetics on a Cp40-KKK immobilized chip (see detailed methods below). Similar results with regard to the intravitreal residence time and concentration levels of the test compounds were obtained regardless of the quantification method selected.
To quantify the levels of all test compounds in vitreous samples collected at different time points following i.v.t. injection (see FIG. 15), WES analysis was performed on a WES instrument (ProteinSimple, San Jose, CA) using a 2 to 40 kDa Separation Module and Anti-Rabbit Detection Module according to the manufacturers' instructions. […] The resulting electropherograms were evaluated using the Compass software (ProteinSimple, San Jose, CA). The following criteria were used to discriminate low peptide signals from background: The peak signal-to-noise (S/N) ratio given by the software must be ≥10, and the peak height/baseline ratio (calculated manually from the peak height and baseline values given by the software) must be equal to or greater than 3. […] Shown in FIG. 15 is a representative standard curve generated using the WES system and bands obtained upon running pre-determined amounts of purified peptide spiked into rabbit vitreous samples. […]

[6] = Pharmacokinetics after single i.v. injection; format: in vivo, cynomolgus monkeys
Method: FIG. 11 show graphs of peptide concentration over time in cynomolgus monkeys to which was administered a single 2 mg/kg intravenous injection of Cp40-KK (panel a), Cp40-KKK (panel b), mPEG(1 k)-Cp40 (panel c), and mPEG(3 k)-Cp40 (panel d). […]
In vivo pharmacokinetic studies were conducted, in which cynomolgus monkeys were administered single i.v. injections of mPEG(1 k)-Cp40, mPEG(3 k)-Cp40, Cp40-KK, or Cp40-KKK.

T1 sequence (P01024 23-667 limits assumed): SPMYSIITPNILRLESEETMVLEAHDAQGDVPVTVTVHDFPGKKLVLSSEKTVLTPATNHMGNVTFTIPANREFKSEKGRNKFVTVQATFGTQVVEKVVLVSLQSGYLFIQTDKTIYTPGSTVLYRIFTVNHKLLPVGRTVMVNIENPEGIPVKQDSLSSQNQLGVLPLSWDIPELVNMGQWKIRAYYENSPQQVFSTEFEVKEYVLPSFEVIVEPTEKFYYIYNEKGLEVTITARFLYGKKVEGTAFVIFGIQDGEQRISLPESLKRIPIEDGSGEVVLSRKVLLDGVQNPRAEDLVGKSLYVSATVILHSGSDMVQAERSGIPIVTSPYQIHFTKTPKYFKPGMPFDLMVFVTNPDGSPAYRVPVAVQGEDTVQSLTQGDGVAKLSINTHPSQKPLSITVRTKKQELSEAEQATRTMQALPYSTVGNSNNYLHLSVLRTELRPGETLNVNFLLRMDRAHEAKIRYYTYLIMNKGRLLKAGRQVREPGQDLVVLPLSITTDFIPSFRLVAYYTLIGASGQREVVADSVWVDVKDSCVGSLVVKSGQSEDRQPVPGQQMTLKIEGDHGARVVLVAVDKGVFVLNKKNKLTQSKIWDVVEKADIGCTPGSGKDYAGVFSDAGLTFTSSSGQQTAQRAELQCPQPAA
T1 sequence (P01024 749-1663 partner limits assumed): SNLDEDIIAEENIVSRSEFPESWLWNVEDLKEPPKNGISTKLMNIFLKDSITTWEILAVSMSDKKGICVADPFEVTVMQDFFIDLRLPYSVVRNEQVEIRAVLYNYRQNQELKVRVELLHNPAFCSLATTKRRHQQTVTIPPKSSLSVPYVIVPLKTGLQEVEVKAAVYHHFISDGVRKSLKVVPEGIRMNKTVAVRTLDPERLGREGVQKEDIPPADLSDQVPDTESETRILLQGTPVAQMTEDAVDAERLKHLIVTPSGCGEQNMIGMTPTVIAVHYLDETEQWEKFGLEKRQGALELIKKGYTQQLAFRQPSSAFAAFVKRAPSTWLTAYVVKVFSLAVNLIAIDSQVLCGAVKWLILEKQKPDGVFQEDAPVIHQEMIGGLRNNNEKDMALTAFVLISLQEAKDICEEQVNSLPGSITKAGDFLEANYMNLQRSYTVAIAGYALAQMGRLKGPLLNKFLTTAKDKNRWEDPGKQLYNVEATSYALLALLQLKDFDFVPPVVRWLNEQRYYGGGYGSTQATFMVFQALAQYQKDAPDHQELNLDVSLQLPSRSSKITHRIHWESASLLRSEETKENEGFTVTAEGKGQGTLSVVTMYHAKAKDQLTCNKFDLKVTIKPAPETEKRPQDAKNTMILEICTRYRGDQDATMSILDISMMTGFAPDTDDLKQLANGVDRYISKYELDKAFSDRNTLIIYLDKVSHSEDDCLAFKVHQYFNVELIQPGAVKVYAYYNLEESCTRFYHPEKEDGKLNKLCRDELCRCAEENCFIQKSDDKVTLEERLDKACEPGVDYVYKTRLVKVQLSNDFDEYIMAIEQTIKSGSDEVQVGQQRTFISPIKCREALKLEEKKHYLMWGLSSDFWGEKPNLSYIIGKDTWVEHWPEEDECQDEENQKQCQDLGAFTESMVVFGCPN

Structure (SMILES) | IC50 [1] [nM] | complement classical pathway inhibitory activity [2] | in vivo Lys cleavage in plasma ([3]; after s.c. injection, UPLC-ESI-MS) | C3 saturation time (peptide above plasma level of C3) ([3]; single s.c. 2 mg/kg) [h] | CL/F, apparent clearance ([3]; single s.c. 2 mg/kg, SUM for Lys analogs, 2 mg/kg) | pH of the peptide solution in PBS [4] | kd, dissociation constant (human C3b) | Kd (human C3b) [nM] | detection in vitreous over time [5] | in vivo Lys cleavage in plasma ([6]; after i.v. injection) | AUC(0-t) ([6]; cynomolgus monkey, plasma, iv, 2 mg/kg, single i.v. injection, read-out: AUC0-120h) [µM·h] | Conc. (mg/ml), solubility in PBS ([4]; pH 7.4) [mg/mL] | drop in the binding affinity toward C3b vs Cp40 (human C3b) [fold] | ka, association constant (human C3b)
CC[C@H](C)[C@H](NC(=O)[C@H](N)Cc1ccc(O)cc1)C(=O)N[C@H]1CSSC[C@@H](C(=O)N(C)[C@H](C(=O)N[C@@H](CCCCN)C(=O)N[C@@H](CCCCN)C(N)=O)[C@@H](C)CC)NC(=O)[C@H](CCCNC(=N)N)NC(=O)[C@H](Cc2c[nH]cn2)NC(=O)[C@H](C)NC(=O)CN(C)C(=O)[C@H](Cc2c[nH]c3ccccc23)NC(=O)[C@H](CC(=O)O)NC(=O)[C@H](CCC(N)=O)NC(=O)[C@H](Cc2cn(C)c3ccccc23)NC(=O)[C@H](C(C)C)NC1=O [Cp40-KK, DTyr-Ile-[Cys-Val-Trp(Me)-Gln-Asp-Trp-Sar-Ala-His-Arg-Cys]-mIle-Lys-Lys—NH2] | 61.8 ± 4.2 | inhibitory activity in a dose-dependent manner | Cp40-K was also detected in the NHP plasma samples, beginning at 30 min after sc injection; also recorded: cleaved in vivo generating minimal amounts of Cp40-K | 2.5 to 5 | 3348 ((mg/kg)/(μM · h) and 2648 ((mg/kg)/(μM · h) | 7-7.5 | 1.52 ± 0.25 10^−3s^−1 | 0.44 ± 0.17 | no longer detected on day 90 | metabolized to minimal amounts of Cp40-K | 85.2 | – | – | –
CC[C@H](C)[C@H](NC(=O)[C@H](N)Cc1ccc(O)cc1)C(=O)N[C@H]1CSSC[C@@H](C(=O)N(C)[C@H](C(=O)N[C@@H](CCCCN)C(N)=O)[C@@H](C)CC)NC(=O)[C@H](CCCNC(=N)N)NC(=O)[C@H](Cc2c[nH]cn2)NC(=O)[C@H](C)NC(=O)CN(C)C(=O)[C@H](Cc2c[nH]c3ccccc23)NC(=O)[C@H](CC(=O)O)NC(=O)[C@H](CCC(N)=O)NC(=O)[C@H](Cc2cn(C)c3ccccc23)NC(=O)[C@H](C(C)C)NC1=O [Cp40-K, DTyr-Ile-[Cys-Val-Trp(Me)-Gln-Asp-Trp-Sar-Ala-His-Arg-Cys]-mlle-Lys—NH2] | 95.6 ± 9.2 | inhibitory activity in a dose-dependent manner | – | – | – | 7.5 | 1.85 ± 0.50 10^−3s^−1 | 0.92 ± 0.2 | – | – | – | – | – | –
CC[C@H](C)[C@H](NC(=O)[C@@H](Cc1ccc(O)cc1)NC(=O)CCOCCOCCOCCOCCOCCOCCOCCOCCOCCOCCOCCOC)C(=O)N[C@H]1CSSC[C@@H](C(=O)N(C)[C@H](C(N)=O)[C@@H](C)CC)NC(=O)[C@H](CCCNC(=N)N)NC(=O)[C@H](Cc2c[nH]cn2)NC(=O)[C@H](C)NC(=O)CN(C)C(=O)[C@H](Cc2c[nH]c3ccccc23)NC(=O)[C@H](CC(=O)O)NC(=O)[C@H](CCC(N)=O)NC(=O)[C@H](Cc2cn(C)c3ccccc23)NC(=O)[C@H](C(C)C)NC1=O [mPEG(528)-Cp40] | 83.5 ± 8.1 | – | – | – | – | 7-7.5 | 2.45 ± 0.28 10^−3s^−1 | 2.58 ± 0.51 | – | – | – | 2.3 | 5 | 1.00 ± 0.27 10^6M^−1s^−1
CC[C@H](C)[C@H](NC(=O)[C@@H](Cc1ccc(O)cc1)NC(=O)CCOCCOCCOCCOCCOCCOCCOCCOCCOCCOCCOCCOCCOCCOCCOCCOCCOCCOCCOCCOCCOCCOCCOCCOC)C(=O)N[C@H]1CSSC[C@@H](C(=O)N(C)[C@H](C(N)=O)[C@@H](C)CC)NC(=O)[C@H](CCCNC(=N)N)NC(=O)[C@H](Cc2c[nH]cn2)NC(=O)[C@H](C)NC(=O)CN(C)C(=O)[C@H](Cc2c[nH]c3ccccc23)NC(=O)[C@H](CC(=O)O)NC(=O)[C@H](CCC(N)=O)NC(=O)[C@H](Cc2cn(C)c3ccccc23)NC(=O)[C@H](C(C)C)NC1=O [mPEG(1056)-Cp40] | 52 ± 2.7 | – | – | – | – | 7-7.5 | 2.80 ± 0.95 10^−3s^−1 | 3.93 ± 0.39 | – | – | – | – | – | 0.72 ± 0.25 10^6M^−1s^−1
